Reference: patent US20060241177A1, “Novel compounds, pharmaceutical compositions containing same, and methods of use for same” (priority 2002, published 2006)
≈ marks a conversion by molar mass, not a printed value.

Columns and labels:
[1] = test system: MCF-7 human breast cancer cells; test: XTT cytotoxicity assay; assay type: cell-based; conditions: MCF7, MCF-7 cells, 72 hours
Method: The XTT assay is a non-radioactive alternative for the [^51Cr] release cytotoxicity assay. XTT is a tetrazolium salt that is reduced to a formazan dye only by metabolically active, viable cells. The reduction of XTT is measured spectrophotometrically as OD490-OD650.
To measure the cytotoxicity of specific compounds against cancer cells, 9×10^3 MCF-7 human breast cancer cells, obtained from the American Type Culture Collection are plated per well in 96 well plates in DMEM medium with 10% fetal bovine serum, msulin, penicillin, and streptomycin. Following overnight culture at 37° C. and 5% CO2, the compounds to be tested, dissolved in DMSO, are added to the wells in 1 μl volume at the following concentrations: 80, 40, 20, 10, 5, 2.5, 1.25, and 0.625 μg/ml in triplicate. Additional concentrations are tested if required. 1 μl of DMSO is added to triplicate wells are the vehicle control. C75 is run at 40, 20, […], and 5 μg/ml in triplicate as positive controls.
After 72 hours of incubation, cells are incubated for 4 hours with the XTT reagent as per manufacturer's instructions (Cell Proliferation Kit II (XTT) Roche). Plates are read at OD490 and OD650 on a Molecular Devices SpectraMax Plus Spectrophotometer. Three wells containing the All reagent without cells serve as the plate blank. XTT data are reported as OD490-OD650. Averages and standard error of the mean are computed using SOFTmax Pro software ([…]).
The IC50 for the compounds is defined as the concentration of drug leading to a 50% reduction in OD490-OD650 compared to controls. The OD490-OD650 are computed by the SOFTmax PRO software Molecular Devices) for each compound concentration. IC50 is calculated by linear regression, plotting the FAS activity as percent of control versus drug concentrations. Linear regression, best-fit line, r^2, and 95% confidence intervals are determined using Prism Version 3.0 (Graph Pad Software).

[2] = biological target: T1, purified human FAS (Homo sapiens, UniProt P49327); test: Measurement of FAS enzymatic activity (NADPH oxidation) and IC50; assay type: biochemical; conditions: purified human FAS from ZR-75-1 cells, malonyl-CoA dependent NADPH oxidation
T1 construct: Human FAS was purified from cultured ZR-75-1 human breast cancer cells; endogenous in cells; host or cells: ZR-75-1 human breast cancer cells (ATCC); endogenous enzyme purified by PEG precipitation and Mono Q chromatography
T1 sequence (P49327 whole entry): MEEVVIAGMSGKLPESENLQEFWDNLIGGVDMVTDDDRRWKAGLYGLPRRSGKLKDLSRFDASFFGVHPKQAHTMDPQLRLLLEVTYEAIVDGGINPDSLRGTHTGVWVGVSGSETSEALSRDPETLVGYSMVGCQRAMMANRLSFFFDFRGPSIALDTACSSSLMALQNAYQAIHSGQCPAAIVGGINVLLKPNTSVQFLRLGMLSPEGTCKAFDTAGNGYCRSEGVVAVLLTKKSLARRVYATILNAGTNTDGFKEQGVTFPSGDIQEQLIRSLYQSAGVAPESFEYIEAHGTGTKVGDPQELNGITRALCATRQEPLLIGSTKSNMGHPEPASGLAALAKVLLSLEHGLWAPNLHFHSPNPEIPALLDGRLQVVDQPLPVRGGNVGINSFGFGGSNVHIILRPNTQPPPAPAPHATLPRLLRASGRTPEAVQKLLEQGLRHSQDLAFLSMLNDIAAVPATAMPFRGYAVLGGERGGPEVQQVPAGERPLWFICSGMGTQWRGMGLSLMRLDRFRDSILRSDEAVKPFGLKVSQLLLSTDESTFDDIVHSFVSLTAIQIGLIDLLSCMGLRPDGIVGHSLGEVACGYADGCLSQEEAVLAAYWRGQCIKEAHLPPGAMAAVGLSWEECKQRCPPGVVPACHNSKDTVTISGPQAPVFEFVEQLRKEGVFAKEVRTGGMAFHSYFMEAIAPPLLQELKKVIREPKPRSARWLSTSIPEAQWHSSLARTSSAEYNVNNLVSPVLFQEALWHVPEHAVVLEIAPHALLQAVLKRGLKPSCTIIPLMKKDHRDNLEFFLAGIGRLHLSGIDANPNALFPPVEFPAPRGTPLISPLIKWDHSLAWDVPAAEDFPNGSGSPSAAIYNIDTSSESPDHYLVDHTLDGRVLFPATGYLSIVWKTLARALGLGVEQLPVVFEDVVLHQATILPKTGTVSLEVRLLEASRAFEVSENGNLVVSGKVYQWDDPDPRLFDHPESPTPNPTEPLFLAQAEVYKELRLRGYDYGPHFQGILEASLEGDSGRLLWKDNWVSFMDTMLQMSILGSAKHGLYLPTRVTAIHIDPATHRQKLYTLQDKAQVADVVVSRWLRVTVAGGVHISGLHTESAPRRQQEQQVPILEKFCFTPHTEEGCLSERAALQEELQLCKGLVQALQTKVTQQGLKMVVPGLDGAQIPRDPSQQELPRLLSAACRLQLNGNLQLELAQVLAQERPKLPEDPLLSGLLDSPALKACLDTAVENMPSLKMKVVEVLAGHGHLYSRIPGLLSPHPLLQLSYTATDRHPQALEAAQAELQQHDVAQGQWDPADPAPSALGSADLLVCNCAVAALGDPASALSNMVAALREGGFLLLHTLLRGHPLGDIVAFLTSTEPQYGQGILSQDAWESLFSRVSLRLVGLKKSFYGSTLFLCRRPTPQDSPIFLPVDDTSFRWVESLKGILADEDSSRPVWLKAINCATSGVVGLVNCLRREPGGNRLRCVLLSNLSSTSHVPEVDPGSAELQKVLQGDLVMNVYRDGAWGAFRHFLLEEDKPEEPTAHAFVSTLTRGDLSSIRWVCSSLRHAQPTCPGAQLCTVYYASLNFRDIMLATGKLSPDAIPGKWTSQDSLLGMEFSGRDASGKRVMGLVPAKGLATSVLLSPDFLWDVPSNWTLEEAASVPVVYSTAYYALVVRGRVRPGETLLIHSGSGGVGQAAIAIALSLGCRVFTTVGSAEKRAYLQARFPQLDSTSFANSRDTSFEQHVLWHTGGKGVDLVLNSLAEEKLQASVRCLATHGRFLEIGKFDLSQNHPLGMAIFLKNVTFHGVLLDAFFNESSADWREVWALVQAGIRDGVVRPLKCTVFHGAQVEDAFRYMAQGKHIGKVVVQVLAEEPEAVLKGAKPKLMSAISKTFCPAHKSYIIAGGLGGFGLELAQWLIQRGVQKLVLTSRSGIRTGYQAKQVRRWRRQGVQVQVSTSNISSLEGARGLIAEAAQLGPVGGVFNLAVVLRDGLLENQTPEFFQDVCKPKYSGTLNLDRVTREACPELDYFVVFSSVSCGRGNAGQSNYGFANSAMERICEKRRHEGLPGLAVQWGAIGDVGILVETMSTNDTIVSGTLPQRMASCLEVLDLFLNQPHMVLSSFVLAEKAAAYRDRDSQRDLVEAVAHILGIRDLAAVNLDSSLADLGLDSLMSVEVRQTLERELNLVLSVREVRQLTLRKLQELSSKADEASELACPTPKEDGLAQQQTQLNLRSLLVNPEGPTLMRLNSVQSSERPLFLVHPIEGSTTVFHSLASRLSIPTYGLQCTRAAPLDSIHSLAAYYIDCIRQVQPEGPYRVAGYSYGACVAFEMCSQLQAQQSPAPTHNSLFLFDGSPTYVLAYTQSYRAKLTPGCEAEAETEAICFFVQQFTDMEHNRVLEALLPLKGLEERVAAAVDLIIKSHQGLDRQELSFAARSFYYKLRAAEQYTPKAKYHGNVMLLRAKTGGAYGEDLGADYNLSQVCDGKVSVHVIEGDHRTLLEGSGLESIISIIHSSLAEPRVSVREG
Method: Human FAS was purified from cultured ZR-75-1 human breast cancer cells obtained from the American Type Culture Collection. The procedure, adapted from Linn et al., 1981, and Kuhajda et al, 1994, utilizes hypotonic lysis, successive polyethyleneglycol (PEG) precipitations, and anion exchange chromatography. ZR-75-1 cells are cultured at 37° C. with 5% CO2 in RPMI culture medium with 10% fetal bovine serum, penicillin and streptomycin.
Ten T150 flasks of confluent cells are lysed with 1.5 ml lysis buffer (20 mM Tris-HCl pH 7.5, 1 mM EDTA, 0.1 mM phenylmethanesulfonyl fluoride (PMSF), 0.1% Igepal CA-630) and dounce homogenized on ice for 20 strokes. The lysate is centrifuged in JA-20 rotor (Beckman) at 20,000 rpm for 30 minutes at 4° C. and the supernatant is brought to 42 ml with lysis buffer. A solution of 50% PEG 8000 in lysis buffer is added slowly to the supernatant to a final concentration of 7.5%. After rocking for 60 minutes at 4° C., the solution is centrifiged in JA-20 rotor (Beckman) at 15,000 rpm for 30 minutes at 4° C. Solid PEG 8000 is then added to the supernatant to a final concentration of 15%. After the rocking and centrifugation is repeated as above, the pellet is resuspended overnight at 4° C. in 10 ml of Buffer A (20 mM K2HPO4, pH 7.4). After 0.45 μM filtration, the protein solution is applied to a Mono Q 5/5 anion exchange column (Pharmacia). The column is washed for 15 minutes with buffer A at 1 ml/minute, and bound material is eluted with a linear 60-ml gradient over 60 minutes to 1 M KCl. FAS (MW˜270 kD) typically elutes at 0.25 M KCl in three 0.5 ml fractions identified using 4-15% SDS-PAGE with Coomassie G250 stain (Bio-Rad). FAS protein concentration is determined using the Coomassie Plus Protein Assay Reagent (Pierce) according to manufacturer's specifications using BSA as a standard This procedure results in substantially pure preparations of FAS (>95%) as judged by Coomassie-stained gels.
Measurement of FAS Enzymatic Activity and Determination of the IC50 of the Compounds
FAS activity is measured by monitoring the malonyl-CoA dependent oxidation of NADPH spectrophotometrically at OD340 in 96-well plates (Dils et al and Arslanian et at, 1975). Each well contains 2 μg purified FAS, 100 mM K2HPO4, pH 6.5, 1 mM dithiothreitol (Sigma), and 187.5 μM β-NADPH (Sigma). Stock solutions of inhibitors are prepared in DMSO at 2, 1, and 0.5 mg/ml resulting in final concentrations of 20, 10, and 5 μg/ml when 1 μl of stock is added per well. For each experiment, cerulenin (Sigma) is run as a positive control along with DMSO controls, inhibitors, and blanks (no FAS enzyme) all in duplicate.
The assay is performed on a Molecular Devices SpectraMax Plus Spectrophotometer. The plate containing FAS, buffers, inhibitors, and controls are placed in the spectrophotometer heated to 37° C. Using the kinetic protocol, the wells are blanked on duplicate wells containing 100 μl of 100 mM K2HPO4, pH 6.5 and the plate is read at OD340 at 10 sec intervals for 5 minutes to measure any malonyl-CoA independent oxidation of NADPH. The plate is removed from the spectrophotometer and malonyl-CoA (67.4 μM, final concentration per well) and acetyl-CoA (61.8 μM, final concentration per well) are added to each well except to the blanks. The plate is read again as above with the kinetic protocol to measure the malonyl-CoA dependent NADPH oxidation. The difference between the Δ OD340 for the malonyl-CoA dependent and non-malonyl-CoA dependent NADPH oxidation is the specific FAS activity. Because of the purity of the FAS preparation, non-malonyl-CoA dependent NADPH oxidation is negligible.
The IC50 for the compounds against FAS is determined by plotting the Δ OD340 for each inhibitor concentration tested, performing linear regression and computing the best-fit line, r^2 values, and 95% confidence intervals. The concentration of compound yielding 50% inhibition of FAS is the IC50. […]

Row | SMILES | FAS (IC50) [2] | IC50 [1] [mg/L] | IC50 [2] [µM]
1 | C=CCNC(=O)C1=C(C)C(=O)O[C@H]1CCCCCCCC | – | 27.8 ± 3.8 (≈ 94.7 µM) | 317
2 | C=CCNC(=O)[C@@H]1C(=C)C(=O)O[C@H]1CCCCCCCC (racemic) | Neg | 0.81 ± 0.01 (≈ 2.76 µM) | –
3 | C=CCNC(=O)[C@H]1[C@H](CCCCCCCC)OC(=O)[C@@H]1C (racemic) | – | 20.8 ± 7.1 (≈ 70.4 µM) | 450
4 | C=CCNC(=O)[C@@H]1C(=C)C(=O)O[C@H]1CCCCCC (racemic) | – | 1.6 ± 0.1 (≈ 6.03 µM) | 305
5 | C=CCNC(=O)[C@@H]1C(=C)C(=O)O[C@H]1CCCC (racemic) | – | 2.4 ± 0.2 (≈ 10.1 µM) | 451
6 | C=C1C(=O)O[C@@H](CCCCCCCC)[C@@H]1C(=O)NCC(=O)OC (racemic) | Neg | 2 ± 0.5 (≈ 6.15 µM) | –
7 | C=C1C(=O)O[C@@H](CCCCCCCC)[C@@H]1C(=O)NCC(=O)O (racemic) | Neg | > 80 | –

The next lines start with results.

Row | FAS (IC50) [2] | SMILES | IC50 [1] [mg/L] | IC50 [2] [µM]
8 | Neg | CCCCCCCCC1OC(=O)[C@@H](C)[C@H]1C(=O)O (stereo partly shown) | > 80 | –
9 | Neg | CCCCCCCCC1OC(=O)[C@H](C)[C@H]1C(=O)O (stereo partly shown) | > 80 | –
10 | Neg | C=CCNC(=O)[C@H]1[C@H](CCCCCCCC)OC(=O)[C@H]1C (racemic) | 59.4 ± 6.4 (≈ 201 µM) | –
11 | Neg | C=C1C(=O)O[C@@H](CCCCCCCC)[C@@H]1C(=O)NCCO (racemic) | 4.1 ± 2.2 (≈ 13.8 µM) | –
